Measurements published in ChEMBL document CHEMBL1140041, “Flavylium salts as in vitro precursors of potent ligands to brain GABA-A receptors” (Bioorg Med Chem Lett, 2008).
pKi: −log10 of the molar value. Active and inactive are the calls of the source. The rule behind the calls is not given here.

Key:
Format in all cases: cell membranes
[1] = species on record: Rattus norvegicus; experiment: Displacement of [3H]flumazenil from GABAA receptor in Wistar rat cortical membrane at 10 uM
[2] = Displacement of [3H]flumazenil from GABAA receptor in Wistar rat cortical membrane
[3] = Displacement of [3H]flumazenil from GABAA receptor in Wistar rat cortical membrane preincubated for 15 mins
[4] = Displacement of [3H]flumazenil from GABAA receptor in Wistar rat cortical membrane preincubated for 24 hrs

Compound	pKi [2]	also measured
Oc1ccc(-c2ccc3ccc(O)c(O)c3[o+]2)cc1		Activity [1]: inactive
COc1ccc(C(=O)/C=C/c2cc(OC)ccc2O)cc1		pKi [4]: 7.55
COc1ccc2ccc(-c3ccccc3)[o+]c2c1	5.74	
COc1ccc(-c2ccc3ccccc3[o+]2)cc1OC		Activity [1]: inactive
COc1ccc2[o+]c(-c3ccc(OC)c(OC)c3)ccc2c1		Activity [1]: inactive
Oc1ccc(-c2ccc3cccc(O)c3[o+]2)cc1		Activity [1]: inactive
COc1cc(-c2ccc3ccccc3[o+]2)cc(OC)c1OC		Activity [1]: inactive
Oc1ccc2ccc(-c3ccccc3)[o+]c2c1	6.59	
Oc1ccc(-c2ccc3ccc(O)cc3[o+]2)cc1	6.55	

More lines, main results first:

pKi [2]	Compound	also measured
5.92	COc1ccc(-c2ccc3ccc(OC)cc3[o+]2)cc1	
6.32	COc1ccc(-c2ccc3ccccc3[o+]2)cc1	
6.85	COc1ccc(-c2ccc3cc(Br)ccc3[o+]2)cc1	pKi [3]: 7.18; pKi [4]: 7.18
5.11	COc1ccc(-c2ccc3cc(OC)c(O)cc3[o+]2)cc1	
6.49	COc1ccc(-c2ccc3cc(O)ccc3[o+]2)cc1	
6.80	COc1ccc2[o+]c(-c3ccc(O)cc3)ccc2c1	
7.22	COc1ccc(-c2ccc3cc(OC)ccc3[o+]2)cc1	pKi [3]: 7.74; pKi [4]: 7.74
6.74	COc1ccc2[o+]c(-c3ccccc3)ccc2c1	
5.82	Oc1ccc(-c2ccc3cc(O)ccc3[o+]2)cc1	
